Experimental data taken from ChEMBL document CHEMBL3860064, “Synthesis of (benzimidazol-2-yl)aniline derivatives as glycogen phosphorylase inhibitors” (Bioorg Med Chem, 2016).

Legend:
[1] = Solubility of the compound in water; format: physicochemical; conditions: buffer
[2] = target: T1, Glycogen phosphorylase, muscle form (Oryctolagus cuniculus, UniProt P00489); assay: Inhibition of rabbit skeletal muscle glycogen phosphorylase b assessed as reduction in inorganic phosphate release using glucose-1-phosphate as substrate at pH 6.8
T1 sequence (P00489 whole entry): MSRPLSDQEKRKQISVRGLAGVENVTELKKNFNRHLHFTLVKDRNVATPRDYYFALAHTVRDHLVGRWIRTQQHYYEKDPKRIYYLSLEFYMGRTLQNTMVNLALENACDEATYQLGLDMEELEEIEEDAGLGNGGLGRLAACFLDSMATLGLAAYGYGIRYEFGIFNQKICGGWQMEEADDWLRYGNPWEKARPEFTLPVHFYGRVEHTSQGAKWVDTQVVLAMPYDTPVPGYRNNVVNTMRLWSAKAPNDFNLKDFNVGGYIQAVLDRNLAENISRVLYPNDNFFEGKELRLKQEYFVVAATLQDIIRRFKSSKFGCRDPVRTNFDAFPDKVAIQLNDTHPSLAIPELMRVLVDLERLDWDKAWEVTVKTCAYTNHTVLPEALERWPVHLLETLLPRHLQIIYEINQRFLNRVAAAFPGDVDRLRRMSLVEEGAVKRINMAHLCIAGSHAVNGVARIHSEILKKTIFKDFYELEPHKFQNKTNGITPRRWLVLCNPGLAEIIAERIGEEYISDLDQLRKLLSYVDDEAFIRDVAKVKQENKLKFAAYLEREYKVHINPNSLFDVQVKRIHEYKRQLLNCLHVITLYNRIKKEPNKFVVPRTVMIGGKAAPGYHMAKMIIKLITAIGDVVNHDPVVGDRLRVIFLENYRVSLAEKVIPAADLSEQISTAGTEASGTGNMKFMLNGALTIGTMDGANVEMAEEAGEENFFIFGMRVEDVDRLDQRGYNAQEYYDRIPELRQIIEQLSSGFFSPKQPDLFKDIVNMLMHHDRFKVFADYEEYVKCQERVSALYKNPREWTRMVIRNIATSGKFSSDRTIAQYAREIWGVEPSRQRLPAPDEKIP

[3] = Aqueous solubility of the compound in 20% DMSO; format: physicochemical; conditions: buffer
[4] = target: T2, Glycogen phosphorylase, muscle form (Oryctolagus cuniculus) (UniProt P00489); assay: Inhibition of rabbit skeletal muscle glycogen phosphorylase b assessed as inorganic phosphate release using glucose-1-phosphate as substrate at pH 6.8 at 1000 uM
T2 sequence (whole entry): T1 sequence (P00489 whole entry)

[5] = target: T3, Glycogen phosphorylase, liver form (Homo sapiens, UniProt P06737); assay: Inhibition of human recombinant liver glycogen phosphorylase A expressed in baculovirus infected Sf9 insect cells assessed as release of phosphate from glucose-1- phosphate in presence of 7.5 mM glucose by malachite green based assay
T3 sequence (P06737 whole entry): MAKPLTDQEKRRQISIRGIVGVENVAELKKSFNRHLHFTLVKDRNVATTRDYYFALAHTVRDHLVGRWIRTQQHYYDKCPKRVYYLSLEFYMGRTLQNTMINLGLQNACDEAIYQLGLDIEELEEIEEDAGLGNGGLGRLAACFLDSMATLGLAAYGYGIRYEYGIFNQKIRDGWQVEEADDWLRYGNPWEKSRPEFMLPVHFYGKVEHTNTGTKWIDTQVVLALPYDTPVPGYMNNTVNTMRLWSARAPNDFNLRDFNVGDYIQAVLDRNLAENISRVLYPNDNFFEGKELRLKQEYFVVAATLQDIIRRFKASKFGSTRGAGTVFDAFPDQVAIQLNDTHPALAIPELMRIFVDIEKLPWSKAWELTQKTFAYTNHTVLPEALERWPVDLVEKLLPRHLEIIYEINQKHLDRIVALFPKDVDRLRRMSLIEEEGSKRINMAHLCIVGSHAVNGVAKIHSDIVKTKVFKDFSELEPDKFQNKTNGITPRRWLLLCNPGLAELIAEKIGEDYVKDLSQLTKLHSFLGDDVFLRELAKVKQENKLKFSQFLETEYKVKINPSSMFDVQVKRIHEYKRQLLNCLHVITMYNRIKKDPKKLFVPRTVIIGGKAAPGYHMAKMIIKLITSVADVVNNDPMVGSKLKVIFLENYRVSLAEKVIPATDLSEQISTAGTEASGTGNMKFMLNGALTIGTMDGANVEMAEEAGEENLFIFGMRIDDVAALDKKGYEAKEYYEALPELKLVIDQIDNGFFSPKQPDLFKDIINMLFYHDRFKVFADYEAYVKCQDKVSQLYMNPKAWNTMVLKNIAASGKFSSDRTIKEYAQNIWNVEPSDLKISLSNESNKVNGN

[6] = target: T2, Glycogen phosphorylase, muscle form (Oryctolagus cuniculus); assay: Inhibition of rabbit skeletal muscle glycogen phosphorylase b assessed as inorganic phosphate release using glucose-1-phosphate as substrate at pH 6.8 at 300 uM
[7] = target: T2, Glycogen phosphorylase, muscle form (Oryctolagus cuniculus); assay: Inhibition of rabbit skeletal muscle glycogen phosphorylase b assessed as inorganic phosphate release using glucose-1-phosphate as substrate at pH 6.8 at 200 uM
[8] = target: T2, Glycogen phosphorylase, muscle form (Oryctolagus cuniculus); assay: Inhibition of rabbit skeletal muscle glycogen phosphorylase b assessed as inorganic phosphate release using glucose-1-phosphate as substrate at pH 6.8 at 500 uM
[9] = target: T1, Glycogen phosphorylase, muscle form; assay: Inhibition of rabbit muscle glycogen phosphorylase b using […] preincubated for 60 mins followed by substrate addition in presence of glycogen
[10] = target: T2, Glycogen phosphorylase, muscle form (Oryctolagus cuniculus); assay: Inhibition of rabbit skeletal muscle glycogen phosphorylase b assessed as inorganic phosphate release using glucose-1-phosphate as substrate at pH 6.8 at 250 uM

Structure (SMILES)	solubility [1]	solubility [3]	other results
O=C1N=C(Nc2ccc(-c3nc4ccccc4[nH]3)cc2)CNN1	Insoluble	–	IC50 [2]: 437 µM
Nc1ccc(-c2nc3ccccc3[nH]2)cc1	Insoluble	–	–
S=C1N=C(Nc2ccc(-c3nc4ccccc4[nH]3)cc2)CNN1	Insoluble	Soluble	–
Cc1nn(-c2ccc([N+](=O)[O-])cc2)c(C)c1/N=N/c1ccc(-c2nc3ccccc3[nH]2)cc1	Insoluble	–	IC50 [2]: 532 µM
O=C(O)/C=C/C(=O)Nc1ccc(-c2nc3ccccc3[nH]2)cc1	Insoluble	–	inhibition [4]: 45%
O=C(NC(=O)c1cc(F)c(F)cc1Cl)Nc1ccsc1-c1n[nH]c(=O)o1	–	–	IC50 [5]: 30 µM
c1ccc2[nH]c(-c3ccc(NC4=NCCNC4)cc3)nc2c1	Insoluble	–	–
O=S(=O)(Nc1ccc(-c2nc3ccccc3[nH]2)cc1)c1ccccc1	Insoluble	Soluble	IC50 [2]: 324 µM
CN(C)C(=O)[C@H](O)[C@H](Cc1ccccc1)NC(=O)c1cc2cc(Cl)ccc2[nH]1	–	–	IC50 [5]: 0.082 µM
O=C(O)c1cc(Nc2ccc(-c3nc4ccccc4[nH]3)cc2)n(-c2ccccc2)n1	Insoluble	–	inhibition [6]: 25%
Oc1nc(=S)[nH]c(O)c1/N=N/c1ccc(-c2nc3ccccc3[nH]2)cc1	Insoluble	–	inhibition [7]: 16.1%
O=C1N=C(Nc2ccc(-c3nc4ccccc4[nH]3)cc2)CN1	Insoluble	–	–
CCOC(=O)C(=NNc1ccc(-c2nc3ccccc3[nH]2)cc1)C(=O)OCC	Insoluble	Soluble	–
O=c1[nH][nH]c(O)c1/N=N/c1ccc(-c2nc3ccccc3[nH]2)cc1	Insoluble	–	inhibition [8]: 29.4%
O=C(N[C@@H](Cc1ccc(F)cc1)C(=O)C(=O)N1CCC(O)CC1)c1cc2cc(Cl)ccc2[nH]1	–	–	IC50 [5]: 0.2 µM; IC50 [9]: 0.178 µM
CC(=O)C(/N=N/c1ccc(-c2nc3ccccc3[nH]2)cc1)=C(/C)O	Insoluble	Soluble	–
O=C(O)c1cc(Nc2ccc(-c3nc4ccccc4[nH]3)cc2)[nH]n1	Insoluble	Insoluble	–
Cc1nn(-c2ccccc2)c(C)c1/N=N/c1ccc(-c2nc3ccccc3[nH]2)cc1	Insoluble	–	–
O=C(O)c1cc(Nc2ccc(-c3nc4ccccc4[nH]3)cc2)n(-c2ccc([N+](=O)[O-])cc2)n1	Insoluble	–	inhibition [10]: 8.1%
Cc1n[nH]c(C)c1/N=N/c1ccc(-c2nc3ccccc3[nH]2)cc1	Insoluble	–	–
O=C(CCl)Nc1ccc(-c2nc3ccccc3[nH]2)cc1	Insoluble	Soluble	–
CC(=O)C/C(C)=N/c1ccc(-c2nc3ccccc3[nH]2)cc1	Insoluble	Soluble	inhibition [7]: 7%
O=[N+]([O-])c1ccccc1S(=O)(=O)Nc1ccc(-c2nc3ccccc3[nH]2)cc1	Insoluble	Soluble	IC50 [2]: 358 µM
S=C1N=C(Nc2ccc(-c3nc4ccccc4[nH]3)cc2)CN1	Insoluble	–	–
Cc1ccc(S(=O)(=O)Nc2ccc(-c3nc4ccccc4[nH]3)cc2)cc1	Insoluble	Soluble	inhibition [8]: 20.7%
N=C1N=C(Nc2ccc(-c3nc4ccccc4[nH]3)cc2)CN1	Insoluble	–	–
